Experimental data: patent US7186725B2, “Anti-inflammatory compositions and methods” (Genzyme Corporation, priority 2003, dated 2007)
Where two headings read alike, the source gives them in different places.

Assays:
purified rat T cells = experiment: Concanavalin A activated T-cell proliferation assay ([3H] thymidine uptake); type: cell-based; conditions: 96 h, @ 1 mM
Protocol: Compounds of Formula I (above), based on an ethyl dimethylaminopropylurea (1) parent structure, have been discovered as active agents against a modified Concanavalin A activated T-cell proliferation assay using purified rat T-cells. These cells were incubated for 4 days and pulsed with [^3H] thymidine for the last 16 hrs of incubation. [^3H] Thymidine uptake was measured as the mean counts per minute (cpm) of duplicate experimental cultures. The compounds of the present invention were discovered by screening a compound library. (directed analogs of parent compound 1) using an assay designed to identify inhibitors of Concanavalin A stimulated T-cell proliferation. Normal dermal fibroblasts and kidney epithelial cell toxicity assays were run on active compounds to eliminate non-selective cytotoxic compounds.

[1] = test system: Distal colitis induced by DNBS; experiment: Inflammatory Bowel Disease: DNBS-induced distal colitis in rats; type: in vivo; conditions: rat
Protocol: CM Hogaboam et al., Eur. J. Pharmacol.; 309; 261 (1996) Groups of 3 derived-male, overnight-fasted rats weighing 150±10 g are used. Distal colitis is induced by intra-colonic instillation of 0.5 ml/rat of DNBS (2,4-dinitrobenzene sulfonic acid, 60 mg/ml in ethanol 30%) after which air (2 ml) is gently injected through the cannula to ensure that the solution remains in the colon. […] The animals are sacrificed 24 hours after the final dose of test compound administration and each colon is removed and weighed.

[2] = test system: Septic Shock, Lipopolysaccharide; experiment: Septic Shock, Lipopolysaccharide plus galactosamine in mice; type: in vivo, C57/BL mice
Protocol: Groups of 4 or 6 C57/BL mice weighing 18–20g were used. […] The blank control group was only applied 10% cremophor/10% ethanol IP and without LPS challenge. Mortality is recorded every 12 hours after challenge over a 3-day period. Protection of mortality by 50 percent or more (≧50%) indicates significant activity.

[3] = test system: Autoimmune Encephalomyelitis (EAE); experiment: Autoimmune Encephalomyelitis (EAE) model, PLP 139-151 immunized mice; type: in vivo, SJL/J mice
IL-1β = experiment: Cellular assay: Mediator Release, IL-1β; type: cell-based; conditions: IL-1β release
IL-6 = experiment: Cellular assay: Mediator Release, IL-6; type: cell-based; conditions: IL-6 release
Interferon-γ = experiment: Cellular assay: Mediator Release, Interferon-γ; type: cell-based
NF-κB = experiment: Cellular assay: Transcription Response, NF-κB; type: cell-based
TNF-α = experiment: Cellular assay: Mediator Release, TNF-α; type: cell-based
IL-5 = experiment: Cellular assay: Mediator Release, IL-5; type: cell-based; conditions: IL-5 release
IL-10 = experiment: Cellular assay: Mediator Release, IL-10; type: cell-based; conditions: IL-10 release
[4] = Table 3, read-out: Thymidine Uptake (% Reduction @ 1 mM)
[5] = Table 2, read-out: Thymidine Uptake (% Reduction @ 1 mM)
[6] = Table 1, read-out: Thymidine Uptake (% Reduction @ 1 mM)
[7] = 25 mg/kg daily day 1 to 16, FIG. 1

COc1ccc(CNC(=O)NCCCN(C)C)c(OC)c1 [Compound 47]
inhibition at 1000 µM (purified rat T cells; [4]): 20%

O=C(O)c1cc(/N=N/c2ccc(S(=O)(=O)Nc3ccccn3)cc2)ccc1O [Sulfasalazine, reference compound]
Ave. (colon to 100 g body weight ratio) ([1]; PO 300 mg/kg × 7): 0.551 | Inhibition (of net increase of colon to 100 g body weight ratio, relative to vehicle with DNBS) ([1]; PO × 7): 41% | Net Inc. (net increase of colon to 100 g body weight ratio) ([1]; PO × 7): 0.254

CCNC(=O)NCCCN1CCN(c2cc(C)ccc2C)CC1 [Compound 39]
inhibition at 1000 µM (purified rat T cells; [5]): 23%

CN(C)CCCNC(=O)Nc1nnn[nH]1 [Compound 52]
inhibition at 1000 µM (purified rat T cells; [4]): 14%

COc1ccccc1CNC(=O)NCCCN(C)C [Compound 43]
inhibition at 1000 µM (purified rat T cells; [4]): 24%

CN(C)CCCNC(=O)NCCC(c1ccccc1)c1ccccc1 [Compound 44]
inhibition at 1000 µM (purified rat T cells; [4]): 21%

CCNC(=O)NC(C)(C)CC(C)=O [Compound 12]
inhibition at 1000 µM (purified rat T cells; [6]): 35%

CCNC(=O)Nc1nc2ccccc2s1 [Compound 8]
inhibition at 1000 µM (purified rat T cells; [6]): 22%

CCNC(=O)NCCCN1CCN(c2ccccc2)C(C)C1 (stereo not shown) [Compound 38]
inhibition at 1000 µM (purified rat T cells; [5]): 13%

CCNC(=O)NCC(c1ccccc1)c1ccccc1 [Compound 4]
inhibition at 1000 µM (purified rat T cells; [6]): 26%

CCNC(=O)Nc1cccc(S(N)(=O)=O)c1 [Compound 14]
inhibition at 1000 µM (purified rat T cells; [6]): 18%

CCNC(=O)NCCCN1CC(C)OC(C)C1 (stereo not shown) [Compound 28]
inhibition at 1000 µM (purified rat T cells; [5]): 13%

CCNC(=O)NCCCN1CCC(Cc2ccccc2)CC1 [Compound 33]
inhibition at 1000 µM (purified rat T cells; [5]): 17%

CCNC(=O)NOC(C)(C)C [Compound 18]
inhibition at 1000 µM (purified rat T cells; [6]): 25%

CCNC(=O)NC(C(=O)OCC)C(=O)OCC [Compound 23]
inhibition at 1000 µM (purified rat T cells; [6]): 12%

CCNC(=O)NCC1CCCO1 (stereo not shown) [Compound 3]
inhibition at 1000 µM (purified rat T cells; [6]): 26%

CN(C)CCCNC(=O)NCc1csc2ccccc12 [Compound 54]
inhibition at 1000 µM (purified rat T cells; [4]): 16%

CCNC(=O)Nc1cnccn1 [Compound 20]
inhibition at 1000 µM (purified rat T cells; [6]): 55%

C=CCNC(=O)NCC [Compound 24]
inhibition at 1000 µM (purified rat T cells; [6]): 18%

CCNC(=O)NCCCN1CCSCC1 [Compound 26]
inhibition at 1000 µM (purified rat T cells; [5]): 16%

CN(C)CCCNC(=O)NCCc1cccc(Cl)c1 [Compound 48]
inhibition at 1000 µM (purified rat T cells; [4]): 26%

CCNC(=O)NCCN1CCCCC1 [Compound 6]
inhibition at 1000 µM (purified rat T cells; [6]): 33%

CN(C)CCCNC(=O)NCCCCO [Compound 41]
inhibition at 1000 µM (purified rat T cells; [4]): 12%

CC(=O)OCC(=O)[C@@]1(O)[C@H](C)C[C@H]2[C@@H]3CCC4=CC(=O)C=C[C@]4(C)[C@@]3(F)[C@@H](O)C[C@@]21C [Dexamethasone-21-acetate, reference compound]
Inhibition (protection of mortality) ([2]; 1 mg/kg PO dose): 100% | Total Deaths ([2]; 1 mg/kg PO dose, N 4, 3-day period): 0

CN(C)CCCNC(=O)Nc1ncc([N+](=O)[O-])s1 [Compound 50]
inhibition at 1000 µM (purified rat T cells; [4]): 22%

CCNC(=O)Nc1c(F)c(F)c(C#N)c(F)c1F [Compound 15]
inhibition at 1000 µM (purified rat T cells; [6]): 26%

CCNC(=O)NCCCN1CCC(C(=O)c2ccc(Cl)cc2)CC1 [Compound 35]
inhibition at 1000 µM (purified rat T cells; [5]): 55%

CCNC(=O)NCCCN1CCN(c2cccc(C)c2C)CC1 [Compound 31, 1-{3′-[4-(2,3-xylyl)-piperazin-1-yl]-propyl}-3-ethyl urea]
inhibition at 1000 µM (purified rat T cells; [5]): 21%

CN(C)CCCNC(=O)NC1Cc2ccccc2C1 [Compound 45]
inhibition at 1000 µM (purified rat T cells; [4]): 20%

CCNC(=O)NCCCN1CCc2ccccc2C1Cc1ccccc1 (stereo not shown) [Compound 34]
inhibition at 1000 µM (purified rat T cells; [5]): 12%

CCNC(=O)NCCCN1CCN(C/C=C\c2ccccc2)CC1 [Compound 37]
inhibition at 1000 µM (purified rat T cells; [5]): 23%

CCNC(=O)NCCCN(CCO)Cc1ccccc1 [Compound 30]
inhibition at 1000 µM (purified rat T cells; [5]): 12%

CCNC(=O)NC1CCN(C(=O)OCC)CC1 [Compound 13]
inhibition at 1000 µM (purified rat T cells; [6]): 35%

COCCCNC(=O)NCCCN(C)C [Compound 53]
inhibition at 1000 µM (purified rat T cells; [4]): 26%

CCNC(=O)NCCCN1CCN(c2ncc(C(F)(F)F)cc2Cl)CC1 [Compound 32]
inhibition at 1000 µM (purified rat T cells; [5]): 27%

CN(C)CCCNC(=O)NCc1ccccc1Cl [Compound 46]
inhibition at 1000 µM (purified rat T cells; [4]): 21%

CCNC(=O)Nc1nc2cc(C)c(C)cc2[nH]1 [Compound 19, 1-(5,6-dimethyl-1H-benzoimidazol-2-yl)-3-ethyl urea]
inhibition at 1000 µM (purified rat T cells; [6]): 77%

CN(C)CCCNC(=O)Nc1nccc2ccccc12 [Compound 49]
inhibition at 1000 µM (purified rat T cells; [4]): 36%

CCNC(=O)Nc1cccc2nsnc12 [Compound 7]
inhibition at 1000 µM (purified rat T cells; [6]): 25%

CN(C)CCCNC(=O)Nc1ncnc2[nH]ncc12 [Compound 51]
inhibition at 1000 µM (purified rat T cells; [4]): 86%

CCNC(=O)NN1CCCC1 [Compound 9]
inhibition at 1000 µM (purified rat T cells; [6]): 16%

CCNC(=O)Nc1cc[nH]n1 [Compound 11]
inhibition at 1000 µM (purified rat T cells; [6]): 35%

CCNC(=O)Nn1cnnc1 [Compound 22]
inhibition at 1000 µM (purified rat T cells; [6]): 19%

CCNC(=O)NCCCN1CCN(c2cccc(C)c2C)CC1 [Compound 57, 1-{3′-[4-(2,3-xylyl)-piperazin-1-yl]-propyl}-3-ethyl urea]
effect on disease onset (ADSS) [3, 7]: had an effect on disease onset | effect on maximum severity (ADSS) [3, 7]: not on maximum severity

CCNC(=O)Nc1nc2cc(C)c(C)cc2[nH]1 [Compound 56, 1-(5,6-dimethyl-1H-benzoimidazol-2-yl)-3-ethyl urea]
Inhibition (protection of mortality) ([2]; IP 5 mg/kg): 17% | Total Deaths ([2]; IP 5 mg/kg, N 6, 3-day period): 5 | Inhibition (protection of mortality) ([2]; IP 25 mg/kg): 50% | response in septic shock model at the highest dose ([2]; IP 25 mg/kg): statistically significant response | Total Deaths ([2]; IP 25 mg/kg, N 6, 3-day period): 3 | activity in septic shock model ([2]; IP 25 and 5 mg/kg): dose responsive activity | inhibition at 10000 µM (IL-1β; Conc. 10 mM): 91% | IC50 (IL-1β): 2.06 µM | inhibition at 10000 µM (IL-6; Conc. 10 mM): 82% | IC50 (IL-6): 3.89 µM | Ave. (colon to 100 g body weight ratio) ([1]; PO 5 mg/kg × 7): 0.678 | Inhibition (of net increase of colon to 100 g body weight ratio, relative to vehicle with DNBS) ([1]; PO 5 mg/kg × 7): 12% | Net Inc. (net increase of colon to 100 g body weight ratio) ([1]; PO 5 mg/kg × 7): 0.381 | response in IBD model at the highest dose ([1]; PO 25 mg/kg): statistically significant response | Ave. (colon to 100 g body weight ratio) ([1]; PO 25 mg/kg × 7): 0.585 | Inhibition (of net increase of colon to 100 g body weight ratio, relative to vehicle with DNBS) ([1]; PO 25 mg/kg × 7): 34% | Net Inc. (net increase of colon to 100 g body weight ratio) ([1]; PO 25 mg/kg × 7): 0.288 | activity in IBD model ([1]; PO 25 and 5 mg/kg): dose responsive activity | IC50 (Interferon-γ): 6.49 µM | inhibition at 10000 µM (Interferon-γ; Conc. 10 mM): 57% | effect on disease onset (ADSS) ([3]; 24 mg/kg daily day 1 to 16, FIG. 2): significant effect | IC50 (NF-κB): 9.65 µM | inhibition at 10000 µM (NF-κB; Conc. 10 mM): 52% | IC50 (TNF-α): 1.94 µM | inhibition at 10000 µM (TNF-α; Conc. 10 mM): 89% | inhibition at 10000 µM (IL-5; Conc. 10 mM): 54% | IC50 (IL-5): 9.28 µM | inhibition at 10000 µM (IL-10; Conc. 10 mM): 63% | IC50 (IL-10): 5.74 µM

CCCN(CCCNC(=O)NCC)CC1CC1 [Compound 29]
inhibition at 1000 µM (purified rat T cells; [5]): 23%

CN(C)CCCNC(=O)NCCc1cccs1 [Compound 55]
inhibition at 1000 µM (purified rat T cells; [4]): 17%

CCNC(=O)NCCCN1CCN(c2cc(Cl)ccc2C)CC1 [Compound 36]
inhibition at 1000 µM (purified rat T cells; [5]): 18%

CCNC(=O)Nc1cccc(OC(F)(F)F)c1 [Compound 10]
inhibition at 1000 µM (purified rat T cells; [6]): 30%

CN(C)CCCNC(=O)NCC12CCC3CC(CC1C3)C2 (stereo not shown) [Compound 40]
inhibition at 1000 µM (purified rat T cells; [4]): 20%

CCNC(=O)NCCc1cccc(Cl)c1 [Compound 5]
inhibition at 1000 µM (purified rat T cells; [6]): 24%

CCCNCCCNC(=O)NCC [Compound 17]
inhibition at 1000 µM (purified rat T cells; [6]): 25%

CCNC(=O)NCC(C)(C)C [Compound 25]
inhibition at 1000 µM (purified rat T cells; [6]): 60%

CCNC(=O)Nc1ncnc2[nH]ncc12 [Compound 21]
inhibition at 1000 µM (purified rat T cells; [6]): 95%

CCNC(=O)NCc1ccco1 [Compound 2]
inhibition at 1000 µM (purified rat T cells; [6]): 16%

CCNC(=O)Nc1ccc(C(N)=O)cc1 [Compound 16]
inhibition at 1000 µM (purified rat T cells; [6]): 27%
